The results in this text go back to patent publication US11236069B2, “KIF18A inhibitors” (AMGEN INC., priority 2018, dated 2022).

SMILES strings stand for the structures. pIC50: −log10 of the molar value.

For this experiment, the target named is Recombinant human KIF18A (1-467 His-tagged) protein (Homo sapiens (Human), UniProt Q8NI77). Description: KIF18A Enzyme Assay: microtubule-stimulated ATPase activity (ADP-Glo). The following applies: read-out: KIF18A ATPase IC50; 30 nM KIF18A, 30 μg/mL pig microtubules, ATP at Km 75 μM, ADP-Glo luminescence.
Sequence of Recombinant human KIF18A (1-467 His-tagged) protein (Q8NI77 1-467): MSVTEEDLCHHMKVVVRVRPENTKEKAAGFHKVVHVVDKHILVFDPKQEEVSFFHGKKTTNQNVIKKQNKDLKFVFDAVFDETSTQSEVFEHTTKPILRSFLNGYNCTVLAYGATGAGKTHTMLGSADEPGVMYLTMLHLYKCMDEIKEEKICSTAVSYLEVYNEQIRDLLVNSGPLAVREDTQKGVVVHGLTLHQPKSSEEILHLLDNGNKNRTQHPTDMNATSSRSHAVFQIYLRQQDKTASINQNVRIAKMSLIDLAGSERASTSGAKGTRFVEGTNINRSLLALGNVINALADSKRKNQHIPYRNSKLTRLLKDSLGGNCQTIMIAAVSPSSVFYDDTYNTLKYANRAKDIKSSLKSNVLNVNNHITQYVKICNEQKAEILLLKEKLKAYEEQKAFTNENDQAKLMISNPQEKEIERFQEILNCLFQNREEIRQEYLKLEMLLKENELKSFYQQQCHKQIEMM
Sequence of Recombinant human KIF18A (1-467 His-tagged) protein (P02550 whole entry partner): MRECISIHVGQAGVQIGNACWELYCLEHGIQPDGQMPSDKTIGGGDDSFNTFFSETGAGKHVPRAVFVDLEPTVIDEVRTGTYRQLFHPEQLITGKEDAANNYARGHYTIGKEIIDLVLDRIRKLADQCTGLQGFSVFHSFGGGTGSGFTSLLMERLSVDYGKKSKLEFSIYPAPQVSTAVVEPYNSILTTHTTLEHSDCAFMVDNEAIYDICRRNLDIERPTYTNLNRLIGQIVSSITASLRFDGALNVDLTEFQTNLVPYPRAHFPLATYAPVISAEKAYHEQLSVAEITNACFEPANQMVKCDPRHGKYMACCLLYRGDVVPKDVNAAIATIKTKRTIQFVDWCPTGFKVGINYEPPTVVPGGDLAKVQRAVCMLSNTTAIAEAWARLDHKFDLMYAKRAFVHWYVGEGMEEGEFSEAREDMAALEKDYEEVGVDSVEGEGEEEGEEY
Sequence of Recombinant human KIF18A (1-467 His-tagged) protein (P02554 whole entry partner): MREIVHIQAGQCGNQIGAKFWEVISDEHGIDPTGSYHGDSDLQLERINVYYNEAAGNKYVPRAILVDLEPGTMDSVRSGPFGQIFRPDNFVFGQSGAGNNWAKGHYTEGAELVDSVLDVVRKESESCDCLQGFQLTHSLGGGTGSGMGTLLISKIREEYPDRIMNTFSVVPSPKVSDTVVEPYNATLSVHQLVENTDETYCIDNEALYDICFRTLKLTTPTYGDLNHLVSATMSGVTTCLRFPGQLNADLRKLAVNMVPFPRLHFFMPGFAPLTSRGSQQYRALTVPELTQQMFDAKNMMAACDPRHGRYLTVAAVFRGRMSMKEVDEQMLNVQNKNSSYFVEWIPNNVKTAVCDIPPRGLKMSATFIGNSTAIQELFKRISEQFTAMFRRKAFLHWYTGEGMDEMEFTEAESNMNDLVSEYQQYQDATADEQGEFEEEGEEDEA
Text: KIF18A Enzyme Assay: Microtubule-stimulated ATPase activity assay is used to measure KIF18A enzyme activity after treatment with compound. Compounds were 2-fold serially diluted in DMSO (Sigma Inc) over 22-point concentration range. […] The assay measures ADP formed from the ATPase reaction.
Broadly, the pIC50 is −log10 of the IC50, conventionally taken in molar units. In the case of `Cc1cc(NC(=O)c2ccc(S(C)(=O)=O)cc2N2CCC3(CC2)CC3)nc(N[C@@H](C)CO)n1` [Example 1-2, (S)-N-(2-((1-Hydroxypropan-2-yl)amino)-6-methylpyrimidin-4-yl)-4-(methylsulfonyl)-2-(6-azaspiro[2.5]octan-6-yl)benzamide], the pIC50 is 6.31.
Under `Cc1cc(NC(=O)c2ccc(NS(=O)(=O)[C@@H](CO)CF)cc2N2CCC3(CC2)CC3)nc(N2CCC(F)(F)CC2)n1` [Example 16-2, (S)-N-(2-(4,4-Difluoropiperidin-1-yl)-6-methylpyrimidin-4-yl)-4-((2-fluoro-1-(hydroxymethyl)ethyl)sulfonamido)-2-(6-azaspiro[2.5]octan-6-yl)benzamide] stands 7.02.
In the case of `Cc1cc(NC(=O)c2ccc(NS(=O)(=O)CCO)cc2N2CCC3(CC2)CC3)nc(N2CCC3(CC3)C2)n1` [Example 11-25, 4-((2-Hydroxyethyl)sulfonamido)-N-(6-methyl-2-(5-azaspiro[2.4]heptan-5-yl)pyrimidin-4-yl)-2-(6-azaspiro[2.5]octan-6-yl)benzamide] it was 7.75; in that of `Cc1cc(NC(=O)c2ccc(NS(=O)(=O)C3CCCC3)cc2N2CCC3(CC2)CC3)nc(N2CCC(F)(F)CC2)n1` [Example 6-10, 4-(Cyclopentanesulfonamido)-N-(2-(4,4-difluoropiperidin-1-yl)-6-methylpyrimidin-4-yl)-2-(6-azaspiro[2.5]octan-6-yl)benzamide], 5.62; in that of `Cc1cc(NC(=O)c2ccc(NS(=O)(=O)[C@@H](C)CO)cc2N2CCC3(CC2)CC3)nc(N2CCO[C@H](C)C2)n1` [Example 6-23-1, 4-(((S)-2-Hydroxy-1-methylethyl)sulfonamido)-N-(6-methyl-2-((R)-2-methylmorpholino)pyrimidin-4-yl)-2-(6-azaspiro[2.5]octan-6-yl)benzamide], 7.41.
Consider `Cc1cc(NC(=O)c2ccc(NS(C)(=O)=O)cc2N2CCC3(CC2)CC3)nc(N2CCC(F)(F)CC2)n1` [Example 6-21, N-(2-(4,4-Difluoropiperidin-1-yl)-6-methylpyrimidin-4-yl)-4-(methylsulfonamido)-2-(6-azaspiro[2.5]octan-6-yl)benzamide], for which the pIC50 was 7.41.
In the case of `Cc1cc(NC(=O)c2ccc(NS(=O)(=O)CF)cc2N2CCC3(CC2)CC3)nc(N2CCC(F)(F)CC2)n1` [Example 6-2, N-(2-(4,4-Difluoropiperidin-1-yl)-6-methylpyrimidin-4-yl)-4-((fluoromethyl)sulfonamido)-2-(6-azaspiro[2.5]octan-6-yl)benzamide] it was 7.38; in that of `Cc1cc(NC(=O)c2ccc(NS(=O)(=O)CCO)cc2N2CCC3(CC2)CC3)nc(N2[C@@H](C)COC[C@@H]2C)n1` [Example 11-49, N-(2-((3S,5S)-3,5-Dimethylmorpholino)-6-methylpyrimidin-4-yl)-4-((2-hydroxyethyl)sulfonamido)-2-(6-azaspiro[2.5]octan-6-yl)benzamide], 6.61; in that of `Cc1cc(NC(=O)c2ccc(NS(=O)(=O)CCO)cc2N2CCC3(CC2)CC3)nc(N2CCC[C@@](C)(F)C2)n1` [Example 11-55, (R)-N-(2-(3-Fluoro-3-methylpiperidin-1-yl)-6-methylpyrimidin-4-yl)-4-((2-hydroxyethyl)sulfonamido)-2-(6-azaspiro[2.5]octan-6-yl)benzamide], 7.39.
In the case of `O=C(Nc1ccnc(OCCC(F)(F)F)n1)c1ccc(S(=O)(=O)NCCO)cc1N1CCC2(CC1)CC2` [Example 17-1, 4-(N-(2-Hydroxyethyl)sulfamoyl)-2-(6-azaspiro[2.5]octan-6-yl)-N-(2-(3,3,3-trifluoropropoxy)pyrimidin-4-yl)benzamide] it was 7.57; in that of `Cc1cc(NC(=O)c2ccc(S(=O)(=O)NCCO)cc2N2CCC3(CC2)CC3)nc(N2CCC(F)(F)CC2)n1` [Example 17-3, N-(2-(4,4-Difluoropiperidin-1-yl)-6-methylpyrimidin-4-yl)-4-(N-(2-hydroxyethyl)sulfamoyl)-2-(6-azaspiro[2.5]octan-6-yl)benzamide], 7.20.
For the compound `Cc1cc(NC(=O)c2ccc(NS(=O)(=O)CCO)cc2N2CCC3(CC2)CC3)cc(N2CCC(F)(F)CC2)n1` [Example 6-30, N-(2-(4,4-Difluoropiperidin-1-yl)-6-methylpyridin-4-yl)-4-((2-hydroxyethyl)sulfonamido)-2-(6-azaspiro[2.5]octan-6-yl)benzamide], the negative logarithm of the IC50 (pIC50) was 7.42.
In the case of `O=C(Nc1ccnc(N2CCC(F)(F)CC2)n1)c1ccc(NS(=O)(=O)CCO)cc1N1CCC2(CC1)CC2` [Example 11-57, N-(2-(4,4-Difluoropiperidin-1-yl)pyrimidin-4-yl)-4-((2-hydroxyethyl)sulfonamido)-2-(6-azaspiro[2.5]octan-6-yl)benzamide] it was 7.66.
In the case of `Cc1cc(NC(=O)c2ccc(S(=O)(=O)NC3(C)COC3)cc2N2CCC3(CC2)CC3)nc(NC(C)(C)CO)n1` [Example 1-7, N-(2-((1-Hydroxy-2-methylpropan-2-yl)amino)-6-methylpyrimidin-4-yl)-4-(N-(3-methyloxetan-3-yl)sulfamoyl)-2-(6-azaspiro[2.5]octan-6-yl)benzamide] it was 6.77; in that of `Cc1cc(NC(=O)c2ccc(NS(=O)(=O)CCO)cc2N2CCC3(CC2)CC3)nc(OCCC(F)(F)F)n1` [Example 11-61, 4-((2-Hydroxyethyl)sulfonamido)-N-(6-methyl-2-(3,3,3-trifluoropropoxy)pyrimidin-4-yl)-2-(6-azaspiro[2.5]octan-6-yl)benzamide], 7.15.
In the case of `Cc1cc(NC(=O)c2ccc(S(=O)(=O)NC3(C)COC3)cc2N2CCC3(CC2)CC3)nc(OCCC(F)(F)F)n1` [Example 1-6, N-(6-Methyl-2-(3,3,3-trifluoropropoxy)pyrimidin-4-yl)-4-(N-(3-methyloxetan-3-yl)sulfamoyl)-2-(6-azaspiro[2.5]octan-6-yl)benzamide], the pIC50 was 7.49.
As for `Cc1cc(NC(=O)c2ccc(S(C)(=O)=O)cc2N2CCC3(CC2)CC3)nc(NC[C@@H](C)O)n1` [Example 1-4, (R)-N-(2-((2-Hydroxypropyl)amino)-6-methylpyrimidin-4-yl)-4-(methylsulfonyl)-2-(6-azaspiro[2.5]octan-6-yl)benzamide], the pIC50 was 6.24.
Under `O=C(Nc1ccnc(N2CC(F)C2)n1)c1ccc(NS(=O)(=O)CCO)cc1N1CCC2(CC1)CC2` [Example 11-6, N-(2-(3-Fluoroazetidin-1-yl)pyrimidin-4-yl)-4-((2-hydroxyethyl)sulfonamido)-2-(6-azaspiro[2.5]octan-6-yl)benzamide] stands 7.17; under `C[C@@H]1CN(c2nccc(NC(=O)c3ccc(S(C)(=O)=O)cc3N3CCC4(CC3)CC4)n2)CCO1` [Example 2-7, (R)-N-(2-(2-Methylmorpholino)pyrimidin-4-yl)-4-(methylsulfonyl)-2-(6-azaspiro[2.5]octan-6-yl)benzamide], 6.62.
In the case of `Cc1cc(NC(=O)c2cc(F)c(NS(=O)(=O)CCO)cc2N2CCC3(CC2)CC3)nc(N2CCC(F)(F)CC2)n1` [Example 11-67, N-(2-(4,4-Difluoropiperidin-1-yl)-6-methylpyrimidin-4-yl)-5-fluoro-4-((2-hydroxyethyl)sulfonamido)-2-(6-azaspiro[2.5]octan-6-yl)benzamide] it was 7.47.
